From the supplement of paper PMC10307832

Experiments:
Experiment in all cases: relative viability (nuclei count vs DMSO), 5 days (fraction); higher = more cells survive
Dasatinib + Pemetrexed = compound: Cc1nc(Nc2ncc(C(=O)Nc3c(C)cccc3Cl)s2)cc(N2CCN(CCO)CC2)n1 [Dasatinib] + Nc1nc2[nH]cc(CCc3ccc(C(=O)N[C@@H](CCC(=O)O)C(=O)O)cc3)c2c(=O)[nH]1 [Pemetrexed] (partner 0.2 µM)
Procedure, shortened: (§1)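 Five library-drug doses in √10 steps were combined with a fixed anchor-drug dose, or a single drug was given alone, by pin tool to lung cancer cell lines in 1536-well plates the day after seeding. Nuclei were stained and counted after 5 days. Relative viability is the nuclei count in treated wells over that in vehicle wells, taken as the median of duplicate plates.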

Dasatinib + Trametinib = compound: Cc1nc(Nc2ncc(C(=O)Nc3c(C)cccc3Cl)s2)cc(N2CCN(CCO)CC2)n1 [Dasatinib] + CC(=O)Nc1cccc(-n2c(=O)n(C3CC3)c(=O)c3c(Nc4ccc(I)cc4F)n(C)c(=O)c(C)c32)c1 [Trametinib] (partner 0.02 µM)
Procedure, shortened: as §1

XMD13-2 + Dasatinib = compound: C1CC1C(=O)NC2=NNC3=C2C=CC(=C3)C4=CC(=CC=C4)C(=O)NC5CC5 [XMD13-2] + Cc1nc(Nc2ncc(C(=O)Nc3c(C)cccc3Cl)s2)cc(N2CCN(CCO)CC2)n1 [Dasatinib] (partner 0.075 µM)
Procedure, shortened: as §1

XMD13-2 + Bortezomib = compound: C1CC1C(=O)NC2=NNC3=C2C=CC(=C3)C4=CC(=CC=C4)C(=O)NC5CC5 [XMD13-2] + CC(C)C[C@H](NC(=O)[C@H](Cc1ccccc1)NC(=O)c1cnccn1)B(O)O [Bortezomib] (partner 0.002 µM)
Procedure, shortened: as §1

Cell Line	relative viability (Dasatinib + Pemetrexed; first compound 0.005 µM)	relative viability (Dasatinib + Pemetrexed; first compound 0.01581 µM)	relative viability (Dasatinib + Pemetrexed; first compound 0.05 µM)	relative viability (Dasatinib + Pemetrexed; first compound 0.1581 µM)	relative viability (Dasatinib + Pemetrexed; first compound 0.5 µM)	relative viability (Dasatinib + Trametinib; first compound 0.005 µM)	relative viability (Dasatinib + Trametinib; first compound 0.01581 µM)	relative viability (Dasatinib + Trametinib; first compound 0.05 µM)	relative viability (Dasatinib + Trametinib; first compound 0.1581 µM)	relative viability (Dasatinib + Trametinib; first compound 0.5 µM)	relative viability (XMD13-2 + Dasatinib; first compound 0.05 µM)	relative viability (XMD13-2 + Dasatinib; first compound 0.1581 µM)	relative viability (XMD13-2 + Dasatinib; first compound 0.5 µM)	relative viability (XMD13-2 + Dasatinib; first compound 1.581 µM)	relative viability (XMD13-2 + Dasatinib; first compound 5 µM)	relative viability (XMD13-2 + Bortezomib; first compound 0.05 µM)	relative viability (XMD13-2 + Bortezomib; first compound 0.1581 µM)	relative viability (XMD13-2 + Bortezomib; first compound 0.5 µM)	relative viability (XMD13-2 + Bortezomib; first compound 1.581 µM)	relative viability (XMD13-2 + Bortezomib; first compound 5 µM)
NCI-H650	0.989	0.932	0.818	0.66	0.418	0.888	0.899	0.847	0.503	0.458	0.463	0.452	0.524	0.39	0.546	0.932	0.757	0.983	0.683	0.993
NCI-H1975	0.284	0.286	0.297	0.239	0.201	0.364	0.25	0.272	0.232	0.177	0.444	0.361	0.467	0.324	0.393	0.45	0.384	0.345	0.392	0.445
NCI-H2085	0.743	0.756	0.491	0.23	0.205	0.485	0.297	0.195	0.214	0.159	0.265	0.246	0.232	0.235	0.243	1.09	1.07	1.15	0.93	1.1
NCI-H3122	0.208	0.205	0.194	0.198	0.186	0.234	0.249	0.248	0.222	0.192	1.01	0.863	0.843	0.723	0.77	1.06	1.05	1.02	1.1	0.985
NCI-H1651	0.58	0.506	0.485	0.545	0.426	0.848	0.852	0.834	0.77	0.679	0.508	0.351	0.423	0.374	0.538	1.02	0.914	0.946	0.92	0.965
NCI-H441	0.305	0.259	0.286	0.225	0.27	0.409	0.418	0.328	0.208	0.181	0.567	0.668	0.54	0.625	0.516	0.652	0.49	0.524	0.464	0.594
NCI-H2126	0.736	0.608	0.636	0.499	0.344	0.641	0.425	0.551	0.424	0.309	0.76	0.595	0.633	0.535	0.561	1.16	1.09	1.18	1.05	1.13
RERF-LC-KJ	0.53	0.466	0.405	0.471	0.457	0.855	0.784	0.765	0.668	0.658	0.983	0.918	0.801	0.72	0.694	1.08	1.05	1.2	0.97	1.14
NCI-H1666	0.871	0.848	0.88	0.73	0.633	0.879	0.858	0.986	0.776	0.833	0.789	0.852	0.861	0.813	0.851	0.893	0.838	1.02	0.763	0.468
PC-14	0.146	0.121	0.108	0.119	0.124	0.882	0.642	0.743	0.418	0.0498	0.279	0.296	0.335	0.242	0.317	0.903	0.888	0.828	0.806	0.916
NCI-H1915	0.489	0.455	0.449	0.337	0.159	0.291	0.245	0.228	0.151	0.0841	0.362	0.342	0.322	0.302	0.305	1.06	1.01	1.01	0.979	1.01
NCI-H661	0.913	0.823	0.889	0.763	0.51	0.629	0.49	0.532	0.445	0.338	0.973	0.96	0.811	0.737	0.523	0.86	0.805	0.846	0.626	0.587
HCC-78	0.913	0.894	0.936	0.899	0.76	0.676	0.679	0.643	0.444	0.354	0.565	0.321	0.36	0.347	0.351	0.464	0.551	0.349	0.553	0.516
PC-3 [JPC-3]	1.22	1.1	1.08	0.717	0.474	0.771	0.736	0.79	0.704	0.528	1.22	0.991	1	0.959	1.11	0.807	0.778	0.884	0.871	0.867
LCLC-103H	0.517	0.437	0.481	0.461	0.328	0.687	0.598	0.574	0.535	0.516	0.688	0.46	0.445	0.515	0.527	1.03	1.1	1.08	1.02	1.21
EKVX	0.384	0.376	0.335	0.371	0.152	0.345	0.306	0.254	0.178	0.114	0.591	0.445	0.548	0.594	0.497	1.23	1.03	1.06	1.1	1.09
